Laboratory results as given in ChEMBL document CHEMBL1201862, “PubChem BioAssay data set” (2004).
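Method: 48-hour compound exposure of cells in 96-well plates, five concentrations, linear interpolation of endpoints. The concentration for 50% growth inhibition is given as GI50.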 The source made the active and inactive calls. Cut-off read from the data, not from the text of the source: active = GI50 up to about 1.1 µM and inactive = higher.

Tests used:
Experiment in all cases: DTP human tumour cell line panel, 48 h
[1] = tested on: A498
[2] = tested on: ACHN
[3] = tested on: CAKI-1
[4] = tested on: CCRF-CEM
[5] = tested on: COLO 205
[6] = tested on: DMS-114
[7] = tested on: EKVX
[8] = tested on: HCT-15
[9] = tested on: HL-60
[10] = tested on: HOP-18
[11] = tested on: HOP-92
[12] = tested on: HT-29
[13] = tested on: IGROV-1
[14] = tested on: K562
[15] = tested on: KM-20L2
[16] = tested on: LOX IMVI
[17] = tested on: LXFL 529
[18] = tested on: M14
[19] = tested on: M19-MEL
[20] = tested on: MOLT-4
[21] = tested on: Malme-3M
[22] = tested on: NCI-H226
[23] = tested on: NCI-H23
[24] = tested on: NCI-H460
[25] = tested on: NCI-H522
[26] = tested on: OVCAR-3
[27] = tested on: OVCAR-8
[28] = tested on: RPMI-8226
[29] = tested on: RXF 631
[30] = tested on: SF-268
[31] = tested on: SF-295
[32] = tested on: SF-539
[33] = tested on: SK-MEL-28
[34] = tested on: SK-MEL-2
[35] = tested on: SK-MEL-5
[36] = tested on: SK-OV-3
[37] = tested on: SN12C
[38] = tested on: SNB-19
[39] = tested on: SNB-75
[40] = tested on: SNB-78
[41] = tested on: SW-620
[42] = tested on: TK-10
[43] = tested on: U-251
[44] = tested on: UACC-62
[45] = tested on: UO-31
[46] = tested on: XF498
[47] = tested on: 786-0
[48] = tested on: A549
[49] = tested on: DLD-1
[50] = tested on: HCC 2998
[51] = tested on: HCT-116
[52] = tested on: KM12
[53] = tested on: OVCAR-4
[54] = tested on: OVCAR-5
[55] = tested on: SR
[56] = tested on: UACC-257
[57] = tested on: DMS-273
[58] = tested on: HOP-62
[59] = tested on: RXF 393

COc1ccc(/C(Cl)=C(\C=O)c2ccc(OC)c(OC)c2)cc1
GI50 [1]: 35.9 µM (inactive)
GI50 [2]: 35.3 µM (inactive)
GI50 [3]: 74.5 µM (inactive)
GI50 [4]: 21.6 µM (inactive)
GI50 [5]: > 100 µM (inactive)
GI50 [6]: 25.9 µM (inactive)
GI50 [7]: 93.8 µM (inactive)
GI50 [8]: 52.1 µM
GI50 [9]: 8.85 µM (inactive)
GI50 [10]: 49.9 µM (inactive)
GI50 [11]: 20.8 µM (inactive)
GI50 [12]: 29.3 µM (inactive)
GI50 [13]: 46.1 µM (inactive)
GI50 [14]: 21 µM (inactive)
GI50 [15]: > 100 µM (inactive)
GI50 [16]: 23.3 µM (inactive)
GI50 [17]: 30.4 µM (inactive)
GI50 [18]: > 100 µM (inactive)
GI50 [19]: > 100 µM (inactive)
GI50 [20]: 28.6 µM (inactive)
GI50 [21]: 17.4 µM (inactive)
GI50 [22]: 34.1 µM (inactive)
GI50 [23]: 21.5 µM (inactive)
GI50 [24]: 35.2 µM (inactive)
GI50 [25]: 9.35 µM (inactive)
GI50 [26]: > 100 µM (inactive)
GI50 [27]: 65.6 µM (inactive)
GI50 [28]: 16.5 µM (inactive)
GI50 [29]: 54.3 µM (inactive)
GI50 [30]: 30.1 µM (inactive)
GI50 [31]: 25.4 µM (inactive)
GI50 [32]: 23.8 µM (inactive)
GI50 [33]: > 100 µM (inactive)
GI50 [34]: 18.5 µM (inactive)
GI50 [35]: 39.2 µM (inactive)
GI50 [36]: 62.4 µM (inactive)
GI50 [37]: 81.8 µM (inactive)
GI50 [38]: 41.1 µM (inactive)
GI50 [39]: 21.7 µM (inactive)
GI50 [40]: 29 µM (inactive)
GI50 [41]: > 100 µM (inactive)
GI50 [42]: 68.2 µM (inactive)
GI50 [43]: 29.8 µM (inactive)
GI50 [44]: 16.6 µM (inactive)
GI50 [45]: 40.5 µM (inactive)
GI50 [46]: 22.2 µM (inactive)

N#C/C(=C/c1ccco1)C(=O)c1ccccc1
GI50 [47]: > 100 µM (inactive)
GI50 [1]: > 100 µM (inactive)
GI50 [48]: > 100 µM (inactive)
GI50 [2]: > 100 µM (inactive)
GI50 [3]: > 100 µM (inactive)
GI50 [4]: > 100 µM (inactive)
GI50 [5]: > 100 µM (inactive)
GI50 [49]: > 100 µM (inactive)
GI50 [6]: > 100 µM (inactive)
GI50 [7]: > 100 µM (inactive)
GI50 [50]: > 100 µM (inactive)
GI50 [51]: > 100 µM (inactive)
GI50 [8]: > 100 µM
GI50 [9]: > 100 µM (inactive)
GI50 [10]: > 100 µM (inactive)
GI50 [11]: > 100 µM (inactive)
GI50 [12]: > 100 µM (inactive)
GI50 [13]: > 100 µM (inactive)
GI50 [14]: > 100 µM (inactive)
GI50 [52]: > 100 µM (inactive)
GI50 [16]: > 100 µM (inactive)
GI50 [17]: > 100 µM (inactive)
GI50 [18]: > 100 µM (inactive)
GI50 [19]: > 100 µM (inactive)
GI50 [20]: > 100 µM (inactive)
GI50 [21]: > 100 µM (inactive)
GI50 [22]: > 100 µM (inactive)
GI50 [23]: > 100 µM (inactive)
GI50 [24]: > 100 µM (inactive)
GI50 [25]: > 100 µM (inactive)
GI50 [53]: > 100 µM (inactive)
GI50 [54]: > 100 µM (inactive)
GI50 [27]: > 100 µM (inactive)
GI50 [28]: > 100 µM (inactive)
GI50 [29]: > 100 µM (inactive)
GI50 [30]: > 100 µM (inactive)
GI50 [31]: > 100 µM (inactive)
GI50 [32]: > 100 µM (inactive)
GI50 [33]: > 100 µM (inactive)
GI50 [34]: > 100 µM (inactive)
GI50 [35]: > 100 µM (inactive)
GI50 [36]: > 100 µM (inactive)
GI50 [37]: > 100 µM (inactive)
GI50 [39]: > 100 µM (inactive)
GI50 [40]: > 100 µM (inactive)
GI50 [55]: > 100 µM (inactive)
GI50 [41]: > 100 µM (inactive)
GI50 [42]: > 100 µM (inactive)
GI50 [43]: > 100 µM (inactive)
GI50 [56]: > 100 µM (inactive)
GI50 [44]: > 100 µM (inactive)
GI50 [45]: > 100 µM (inactive)
GI50 [46]: > 100 µM (inactive)

COc1cc2c(cc1OC)C1c3ccccc3C(C#N)(C2)N(C(=O)c2ccccc2)C1O (configuration not stated)
GI50 [47]: > 100 µM (inactive)
GI50 [2]: 50 µM (inactive)
GI50 [4]: 52.1 µM (inactive)
GI50 [5]: 22.8 µM (inactive)
GI50 [49]: 74.1 µM (inactive)
GI50 [6]: 41.2 µM (inactive)
GI50 [57]: 29.6 µM (inactive)
GI50 [7]: 75 µM (inactive)
GI50 [50]: > 100 µM (inactive)
GI50 [51]: > 100 µM (inactive)
GI50 [8]: 55.8 µM
GI50 [9]: 42.3 µM (inactive)
GI50 [10]: > 100 µM (inactive)
GI50 [58]: 25.7 µM (inactive)
GI50 [11]: > 100 µM (inactive)
GI50 [12]: > 100 µM (inactive)
GI50 [13]: 47.5 µM (inactive)
GI50 [14]: 36.5 µM (inactive)
GI50 [15]: 82.4 µM (inactive)
GI50 [52]: 46.5 µM (inactive)
GI50 [16]: > 100 µM (inactive)
GI50 [17]: 46.6 µM (inactive)
GI50 [18]: 79.1 µM (inactive)
GI50 [19]: > 100 µM (inactive)
GI50 [20]: 35.2 µM (inactive)
GI50 [21]: > 100 µM (inactive)
GI50 [22]: 61.1 µM (inactive)
GI50 [23]: 84.5 µM (inactive)
GI50 [24]: 59.7 µM (inactive)
GI50 [25]: 21.3 µM (inactive)
GI50 [26]: 52.1 µM (inactive)
GI50 [54]: > 100 µM (inactive)
GI50 [27]: 54.2 µM (inactive)
GI50 [28]: 45 µM (inactive)
GI50 [59]: 85.5 µM (inactive)
GI50 [29]: > 100 µM (inactive)
GI50 [30]: > 100 µM (inactive)
GI50 [31]: > 100 µM (inactive)
GI50 [32]: > 100 µM (inactive)
GI50 [33]: > 100 µM (inactive)
GI50 [34]: 56.5 µM (inactive)
GI50 [35]: 30.7 µM (inactive)
GI50 [36]: 77.3 µM (inactive)
GI50 [37]: > 100 µM (inactive)
GI50 [38]: 59 µM (inactive)
GI50 [39]: 45.7 µM (inactive)
GI50 [40]: 37.1 µM (inactive)
GI50 [55]: 79.8 µM (inactive)
GI50 [41]: 65 µM (inactive)
GI50 [42]: 93.1 µM (inactive)
GI50 [43]: 56.5 µM (inactive)
GI50 [56]: 60.7 µM (inactive)
GI50 [44]: 43.7 µM (inactive)
GI50 [45]: 61.8 µM (inactive)
GI50 [46]: 24.8 µM (inactive)

c1ccc2c(c1)nc1n2CSC1
GI50 [1]: > 100 µM (inactive)
GI50 [2]: > 100 µM (inactive)
GI50 [3]: > 100 µM (inactive)
GI50 [4]: > 100 µM (inactive)
GI50 [5]: > 100 µM (inactive)
GI50 [49]: > 100 µM (inactive)
GI50 [6]: > 100 µM (inactive)
GI50 [57]: > 100 µM (inactive)
GI50 [7]: > 100 µM (inactive)
GI50 [8]: > 100 µM
GI50 [9]: > 100 µM (inactive)
GI50 [10]: > 100 µM (inactive)
GI50 [11]: 24 µM (inactive)
GI50 [12]: > 100 µM (inactive)
GI50 [13]: > 100 µM (inactive)
GI50 [14]: > 100 µM (inactive)
GI50 [15]: > 100 µM (inactive)
GI50 [16]: > 100 µM (inactive)
GI50 [17]: > 100 µM (inactive)
GI50 [18]: > 100 µM (inactive)
GI50 [19]: > 100 µM (inactive)
GI50 [20]: > 100 µM (inactive)
GI50 [21]: > 100 µM (inactive)
GI50 [22]: > 100 µM (inactive)
GI50 [23]: > 100 µM (inactive)
GI50 [24]: > 100 µM (inactive)
GI50 [25]: > 100 µM (inactive)
GI50 [26]: > 100 µM (inactive)
GI50 [27]: > 100 µM (inactive)
GI50 [28]: > 100 µM (inactive)
GI50 [29]: > 100 µM (inactive)
GI50 [30]: > 100 µM (inactive)
GI50 [31]: > 100 µM (inactive)
GI50 [32]: > 100 µM (inactive)
GI50 [33]: > 100 µM (inactive)
GI50 [34]: > 100 µM (inactive)
GI50 [35]: > 100 µM (inactive)
GI50 [36]: > 100 µM (inactive)
GI50 [37]: > 100 µM (inactive)
GI50 [38]: > 100 µM (inactive)
GI50 [39]: > 100 µM (inactive)
GI50 [40]: > 100 µM (inactive)
GI50 [41]: > 100 µM (inactive)
GI50 [42]: > 100 µM (inactive)
GI50 [43]: > 100 µM (inactive)
GI50 [44]: > 100 µM (inactive)
GI50 [45]: > 100 µM (inactive)
GI50 [46]: > 100 µM (inactive)
